How the values were obtained:
HDAC6 = molecular target: T1, HDAC6 (Homo sapiens, UniProt Q9UBN7); experiment: Fluorometric HDAC inhibition assay, HDAC6; assay type: biochemical; conditions: purified human protein; Ac-Gly-Ala-[Lys-Ac]-AMC substrate 10 μM; 15 min preincubation
T1 construct: TwinStrep-FLAG-HALO (N, cleaved yes); made in house; host or cells: HEK293/T17
T1 sequence (Q9UBN7 1-1215): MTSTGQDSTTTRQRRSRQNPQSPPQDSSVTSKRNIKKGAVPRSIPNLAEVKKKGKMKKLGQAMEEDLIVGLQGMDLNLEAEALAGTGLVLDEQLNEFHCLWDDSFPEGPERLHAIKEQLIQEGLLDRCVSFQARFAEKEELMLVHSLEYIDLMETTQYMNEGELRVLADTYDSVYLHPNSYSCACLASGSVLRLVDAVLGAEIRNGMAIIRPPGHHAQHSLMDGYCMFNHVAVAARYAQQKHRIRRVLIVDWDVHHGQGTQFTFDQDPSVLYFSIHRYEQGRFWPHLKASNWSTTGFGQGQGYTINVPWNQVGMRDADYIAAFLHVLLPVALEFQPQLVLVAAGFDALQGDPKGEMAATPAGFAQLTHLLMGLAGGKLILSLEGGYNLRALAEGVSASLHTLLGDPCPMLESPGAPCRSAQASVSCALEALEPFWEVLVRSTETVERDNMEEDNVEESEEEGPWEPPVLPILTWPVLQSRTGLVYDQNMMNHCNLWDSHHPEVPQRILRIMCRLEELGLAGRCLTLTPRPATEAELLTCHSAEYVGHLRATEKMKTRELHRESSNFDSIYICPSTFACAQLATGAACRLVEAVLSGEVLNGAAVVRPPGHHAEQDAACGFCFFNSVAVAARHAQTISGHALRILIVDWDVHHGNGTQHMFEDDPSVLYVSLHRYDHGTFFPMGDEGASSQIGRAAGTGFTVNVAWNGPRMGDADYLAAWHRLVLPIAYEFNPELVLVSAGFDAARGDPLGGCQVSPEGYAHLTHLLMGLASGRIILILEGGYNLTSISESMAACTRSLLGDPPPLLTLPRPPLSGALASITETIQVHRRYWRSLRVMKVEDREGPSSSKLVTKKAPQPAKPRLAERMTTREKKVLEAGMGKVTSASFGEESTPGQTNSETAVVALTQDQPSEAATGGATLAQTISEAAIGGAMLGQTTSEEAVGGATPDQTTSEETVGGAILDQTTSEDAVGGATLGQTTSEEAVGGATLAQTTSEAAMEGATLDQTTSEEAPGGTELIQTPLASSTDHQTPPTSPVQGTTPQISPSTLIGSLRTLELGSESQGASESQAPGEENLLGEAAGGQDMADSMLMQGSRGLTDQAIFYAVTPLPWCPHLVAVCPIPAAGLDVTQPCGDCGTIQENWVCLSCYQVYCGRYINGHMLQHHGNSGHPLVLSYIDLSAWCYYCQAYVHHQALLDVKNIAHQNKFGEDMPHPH
Method: Large-scale expression of recombinant human HDACs was carried out as described previously.[32],[37] Briefly, HEK293/T17 cells were transiently transfected with expression pMM222 plasmids comprising N-terminally tagged (TwinStrep-FLAG-HALO tag; Figure S1) HDAC genes using linear poly(ethyleneimine) (PEI, Polysciences Inc.). Cells were harvested three days post-transfection, and cell pellets were resuspended in the lysis buffer (100 mM Tris-HCl, 10 mM NaCl, 5 mM KCl, 2 mM MgCl2, and 10% glycerol at pH 8.0). Cells were disrupted by sonication, cell lysates were cleared by centrifugation, and soluble fusion proteins were first purified by Streptactin affinity chromatography (IBA). For all HDACs but HDACs 1, 10, and 11, the N-terminal tag was cleaved off overnight by the addition of TEV protease (10:1 HDAC/TEV ratio). Size-exclusion chromatography on a Superose 6 column (GE Healthcare Bio-Sciences; running buffer 30 mM HEPES, 140 mM NaCl, 10 mM KCl, 3% glycerol, and 0.25 mM TCEP) was used as the final purification step for all HDAC constructs.
(§1) Optimized fluorometric assays were used to determine inhibition constants of studied compounds against individual HDAC isoforms as described previously.[32] Briefly, reactions were performed in the activity buffer comprising 50 mM HEPES, 140 mM NaCl, and 10 mM KCl at pH 7.4 supplemented with 1 mg mL^–1 bovine serum albumin (BSA), 1 mM tris(2-carboxyethyl)phosphine (TCEP), 10 μM substrates, and optimized concentrations of HDACs. The Ac-Gly-Ala-[Lys-Ac]-7-amino-methylcoumarylamide (AMC) substrate was used to profile HDACs 1, 2, 3, and 6; Boc-[Lys-TFA]-7-amino-methylcoumarylamide was used for HDACs 4, 5, 7, 8, and 9 (both substrates: Bachem); fluorescein-labeled N8-acetylspermidine was used for HDAC10;[32] and an internally quenched TNFα-derived peptide derivative was used for HDAC11.[39] Deacetylation reactions were monitored either by high-performance liquid chromatography (HPLC) (HDAC10) or by quantification of released AMC (λex/λem = 365/440 nm) using a CLARIOstar plate reader (BMG Labtech GmbH).

zHDAC6 (Y745F) = molecular target: T2, zHDAC6 (Y745F) (Danio rerio, UniProt F8W4B7, Y745F); experiment: Inhibition assay, zebrafish HDAC6 catalytic DD2 domain, Y745F mutant; assay type: biochemical
T2 construct: Danio rerio HDAC6 (amino acids 440–798; zHDAC6); His (N, cleaved yes); MBP (N, cleaved yes); made in house; host or cells: RIPL Escherichia coli
T2 sequence (F8W4B7 440-798 Y745F): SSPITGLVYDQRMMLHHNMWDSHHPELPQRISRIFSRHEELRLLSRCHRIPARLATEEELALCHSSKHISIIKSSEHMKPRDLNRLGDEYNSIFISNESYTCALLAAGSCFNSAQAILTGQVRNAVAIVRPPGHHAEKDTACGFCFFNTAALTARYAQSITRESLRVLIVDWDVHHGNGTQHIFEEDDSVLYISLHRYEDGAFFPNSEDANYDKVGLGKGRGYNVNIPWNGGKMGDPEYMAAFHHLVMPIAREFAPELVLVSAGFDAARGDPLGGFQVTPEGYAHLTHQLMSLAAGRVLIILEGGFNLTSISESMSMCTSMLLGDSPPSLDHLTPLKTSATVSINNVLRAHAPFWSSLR
Method: The second catalytic domain of Danio rerio HDAC6 (amino acids 440–798; zHDAC6) was expressed in RIPL Escherichia coli as described previously using the pEC566-zHDAC6 expression vector.[16],[38] Briefly, bacteria were incubated at 37 °C with shaking (250 rpm) until the optical density reached an OD600 = 0.5. Then, the culture was cooled to 18 °C for 1 h, and recombinant protein expression was induced by the addition of 75 μM isopropyl β-D-1-thiogalactopyranoside together with 200 μM ZnSO4. The culture was grown at 18 °C for an additional 18 h and harvested by centrifugation at 5500g for 15 min. The cell pellet was resuspended in the lysis buffer (50 mM phosphate, 300 mM NaCl, 10% glycerol, and 20 mM imidazole at pH 8; 5 mL g^–1 bacterial pellet) and lysed by three passages through EmulsiFlex (Avestin). Cell lysates were centrifuged (15,000g at 4 °C for 20 min), and the fusion protein in the supernatant was purified via Ni-NTA chromatography. Fractions containing the His-MBP-HDAC6 fusion were concentrated to 2 mg mL^–1 and cleaved overnight by the addition of TEV protease (zHDAC6/TEV 1:20 ratio). The cleaved tag and the TEV protease were sequentially removed using amylose (New England Biolabs) and HisTrap columns (Cytiva), and zHDAC6 was further purified by size-exclusion chromatography on a HiLoad Superdex 75 pg column (GE Healthcare Bio-Sciences). Fractions containing zHDAC6 were pooled, concentrated to 10 mg mL^–1, flash-frozen in liquid nitrogen, and stored at −80 °C. The purity of protein preparations was monitored by SDS-PAGE (Figure S2).
The zHDAC6 mutants (Y745F and H574A) were constructed using the Quick-change site-directed mutagenesis protocol with the pEC566-zHDAC6 expression plasmid as a template. Both mutants were expressed and purified as described above for wild-type zHDAC6 (Figure S2).
as §1

Row | IC50 (HDAC6) [µM] | IC50 (zHDAC6 (Y745F)) [µM] | Compound
1 | > 100 | – | Cc1nnc(-c2ccc(CN(c3cccc(Cl)c3)S(C)(=O)=O)nc2)o1 [compound 10]
2 | 0.085 ± 0.0028 | > 20 | CS(=O)(=O)N(Cc1ccc(-c2nnc(CF)o2)cn1)c1cccc(Cl)c1 [compound 9]

From article PMC10367051, “Comprehensive Mechanistic View of the Hydrolysis of Oxadiazole-Based Inhibitors by Histone Deacetylase 6 (HDAC6)” (ACS Chemical Biology, 2023)
